Source: ChEMBL document CHEMBL5321204, “Hybrids of delavirdine and piperdin-4-yl-aminopyrimidines (DPAPYs) as potent HIV-1 NNRTIs: Design, synthesis and biological activities” (Eur J Med Chem, 2023)

Tests used:
in vitro = conditions: human, MT4 cells
Description: Selectivity index, ratio of CC50 for cytotoxicity against human MT4 cells assessed as reduction in cell viability to EC50 for antiviral activity against HIV-1 IIIb infected in human MT4 cells assessed as reduction in virus induced cytopathic effect

[1] = tested on: Human immunodeficiency virus 1; assay: Antiviral activity against HIV-1 RES056 mutant infected in human MT4 cells assessed as protection against virus induced cytopathic effect and measured after 5 days by MTT spectrophotometric assay; assay type: functional, organism-based; conditions: Human immunodeficiency virus 1, MT4, 120 h
[2] = tested on: Human immunodeficiency virus 1; assay: Antiviral activity against HIV-1 Y181C mutant infected in human MT4 cells assessed as protection against virus induced cytopathic effect and measured after 5 days by MTT spectrophotometric assay; assay type: functional, organism-based; conditions: Human immunodeficiency virus 1, MT4, 120 h
[3] = tested on: Human immunodeficiency virus 1; assay: Antiviral activity against HIV-1 K103 N mutant infected in human MT4 cells assessed as protection against virus induced cytopathic effect and measured after 5 days by MTT spectrophotometric assay; assay type: functional, organism-based; conditions: Human immunodeficiency virus 1, MT4, 120 h
[4] = tested on: Human immunodeficiency virus 1; assay: Antiviral activity against HIV-1 F227L-V106A mutant infected in human MT4 cells assessed as protection against virus induced cytopathic effect and measured after 5 days by MTT spectrophotometric assay; assay type: functional, organism-based; conditions: Human immunodeficiency virus 1, MT4, 120 h
[5] = tested on: Human immunodeficiency virus 1; assay: Antiviral activity against HIV-1 L100I mutant infected in human MT4 cells assessed as protection against virus induced cytopathic effect and measured after 5 days by MTT spectrophotometric assay; assay type: functional, organism-based; conditions: Human immunodeficiency virus 1, MT4, 120 h
[6] = biological target: Human immunodeficiency virus type 1 reverse transcriptase (Human immunodeficiency virus 1, UniProt Q72547); assay: Inhibition of HIV-1 reverse transcriptase using [2,8-3H]dGTP as substrate by […] assay
[7] = tested on: Human immunodeficiency virus 1; assay: Antiviral activity against HIV-1 Y188L mutant infected in human MT4 cells assessed as protection against virus induced cytopathic effect and measured after 5 days by MTT spectrophotometric assay; assay type: functional, organism-based; conditions: Human immunodeficiency virus 1, MT4, 120 h
[8] = tested on: Human immunodeficiency virus 2; assay: Antiviral activity against HIV-2 ROD infected in human MT4 cells assessed as protection against virus induced cytopathic effect and measured after 5 days by MTT spectrophotometric assay; assay type: functional, organism-based; conditions: Human immunodeficiency virus 2, ROD, MT4, 120 h
[9] = Cytotoxicity against human MT4 cells assessed as reduction in cell viability incubated for 5 days by MTT spectrophotometric assay; assay type: toxicity, cell-based; conditions: time 5 day
[10] = tested on: Human immunodeficiency virus 1; assay: microbe, parasite or virus in culture; conditions: Human immunodeficiency virus 1, IIIb, MT4, 120 h
Description: Antiviral activity against HIV-1 IIIb infected in human MT4 cells assessed as protection against virus induced cytopathic effect and measured after 5 days by MTT spectrophotometric assay

[11] = tested on: Human immunodeficiency virus 1; assay: Antiviral activity against HIV-1 E138K mutant infected in human MT4 cells assessed as protection against virus induced cytopathic effect and measured after 5 days by MTT spectrophotometric assay; assay type: functional, organism-based; conditions: Human immunodeficiency virus 1, MT4, 120 h

SMILES	selectivity ratio (in vitro)	EC50 [1] [µM]	EC50 [2] [µM]	EC50 [3] [µM]	EC50 [4] [µM]	EC50 [5] [µM]	IC50 [6] [nM]	EC50 [7] [µM]	EC50 [8] [µM]	CC50 at 120 h [9] [µM]	EC50 [10] [nM]	EC50 [11] [µM]
CS(=O)(=O)Nc1ccc2[nH]c(C(=O)N3CCC(Nc4nccc(Oc5ccccc5Br)n4)CC3)cc2c1	60	> 17	3.7	3.8	6.5	6.8	1400	7.1	> 17	17	270	0.79
Cc1cc(C)c(Oc2ccnc(NC3CCN(C(=O)c4cc5cc(NS(C)(=O)=O)ccc5[nH]4)CC3)n2)c(C)c1	2150	> 19	0.36	0.12	3.06	1.1	110	0.75	> 19	19	9	0.033
Cc1ccnc2c1NC(=O)c1cccnc1N2C1CC1 [NEVIRAPINE]		> 15		7.4	> 15	2.2		> 15		> 15	190	0.31
Cc1cn([C@H]2C[C@H](N=[N+]=[N-])[C@@H](CO)O2)c(=O)[nH]c1=O [ZIDOVUDINE]	> 290	0.035	0.019	0.032	0.026	0.009		0.023	0.021	> 7.1	24	
CS(=O)(=O)Nc1ccc2[nH]c(C(=O)N3CCC(Nc4nccc(Oc5ccc(C(F)(F)F)cc5)n4)CC3)cc2c1	10	> 18	> 18	> 18	> 18	> 18	1300	> 18	> 18	18	1800	5.7
CS(=O)(=O)Nc1ccc2[nH]c(C(=O)N3CCC(Nc4nccc(Oc5cccc(Br)c5)n4)CC3)cc2c1	21	> 14	8.1	7.6	8.1	7.2	3400	> 14	> 14	14	670	3.5
CS(=O)(=O)Nc1ccc2[nH]c(C(=O)N3CCC(Nc4nccc(Oc5ccc(C#N)cc5)n4)CC3)cc2c1	62	> 192	> 192	> 192	> 192	> 192	1100	> 192	> 192	192	3100	7.3
CS(=O)(=O)Nc1ccc2[nH]c(C(=O)N3CCC(Nc4nccc(Oc5ccc(Br)cc5F)n4)CC3)cc2c1	84	> 80	29	23	> 80	32	110	> 80	> 80	80	940	3
Cc1cc(Oc2ccnc(NC3CCN(C(=O)c4cc5cc(NS(C)(=O)=O)ccc5[nH]4)CC3)n2)cc(C)c1Cl	4	> 5.3	> 5.3	> 5.3	> 5.3	> 5.3	3000	> 5.3	> 5.3	5.3	1300	> 5.3
Cc1ccccc1Oc1ccnc(NC2CCN(C(=O)c3cc4cc(NS(C)(=O)=O)ccc4[nH]3)CC2)n1	41	> 13	9	8.7	> 13	> 13	8600	> 13	> 13	13	330	1
CS(=O)(=O)Nc1ccc2[nH]c(C(=O)N3CCC(Nc4nccc(Oc5cccc(Cl)c5)n4)CC3)cc2c1	20	> 14	9	8.2	8.8	8.1	340	9.2	> 14	14	700	5.5
Cc1cc(C#N)cc(C)c1Oc1nc(Nc2ccc(C#N)cc2)nc(N)c1Br [ETRAVIRINE]	> 1430	0.1		0.004	0.03	0.012		0.03		> 4.6		0.017
CS(=O)(=O)Nc1ccc2[nH]c(C(=O)N3CCC(Nc4nccc(Oc5ccc(Cl)cc5)n4)CC3)cc2c1	20	> 15	> 15	8.4	> 15	8.2	1100	> 15	> 15	15	740	4.5
CS(=O)(=O)Nc1ccc2[nH]c(C(=O)N3CCC(Nc4nccc(Oc5cccc(C(F)(F)F)c5)n4)CC3)cc2c1	16	> 16	> 16	> 16	> 16	> 16	1800	> 16	> 16	16	1000	4.2
Nc1ccn([C@@H]2CS[C@H](CO)O2)c(=O)n1 [LAMIVUDINE]	> 11	10	3.5	4.7	8.2	1.7		4.1		> 87	8300	7.4
O=C1Nc2ccc(Cl)cc2[C@@](C#CC2CC2)(C(F)(F)F)O1 [EFAVIRENZ]		0.57		0.14	0.41	0.067		0.32		> 6.3		0.007
Cc1cccc(C)c1Oc1ccnc(NC2CCN(C(=O)c3cc4cc(NS(C)(=O)=O)ccc4[nH]3)CC2)n1	678	> 21	0.84	0.52	2.7	3.3	12000	0.67	> 21	21	32	0.08
CS(=O)(=O)Nc1ccc2[nH]c(C(=O)N3CCC(Nc4nccc(Oc5cccc(C#N)c5)n4)CC3)cc2c1	8	> 29	> 29	> 29	> 28	> 29	600	> 29	> 29	29	3700	8.7
Cc1cccc(Oc2ccnc(NC3CCN(C(=O)c4cc5cc(NS(C)(=O)=O)ccc5[nH]4)CC3)n2)c1	5	> 27	> 27	> 27	> 27	> 27	1200	> 27	> 27	27	5500	> 27
Cc1cc(C#N)cc(C)c1Oc1ccnc(NC2CCN(C(=O)c3cc4cc(NS(C)(=O)=O)ccc4[nH]3)CC2)n1	686	> 25	0.73	0.54	3.6	1.8	130	3.8	> 25	25	36	0.21
CS(=O)(=O)Nc1ccc2[nH]c(C(=O)N3CCC(Nc4nccc(Oc5ccc(Br)cc5)n4)CC3)cc2c1	10	> 9.1	> 9.1	8.2	> 9.1	7.1	2200	> 9.1	> 9.1	9.1	870	6.7
CS(=O)(=O)Nc1ccc2[nH]c(C(=O)N3CCC(Nc4nccc(Oc5ccccc5Cl)n4)CC3)cc2c1	35	> 15	5.9	6.4	8.3	7.6	1600	7.8	> 15	15	430	0.98
CS(=O)(=O)Nc1ccc2[nH]c(C(=O)N3CCC(Nc4nccc(Oc5cccc(F)c5)n4)CC3)cc2c1	3	> 15	> 15	> 15	> 15	> 15	4200	> 15	> 15	15	5700	7.3
